Values joined by “and” are separate entries in the source; they are usually repeats but may differ in a detail not shown here. Equal values may be shown once.
Legend:
Format in all cases: in vivo, human
[1] = tested on: children with regressive autism (R-ASD), STAR group; test: 4 Hz frequency modulated auditory evoked response (FMAER), before vs after steroid treatment; settings: for Mean Diff. (mean of pre to post difference of 4 Hz FMAER spectral power): STAR group n = 20, oral 2 mg/kg/day
Text: In this example, subjects with regressive autism were utilized to determine whether application of a corticosteroid would improve language function and show an improved 4 Hz FMAER. […] A pharmacologically untreated clinical convenience sample of children with ASD served as controls.
Steroid Treated Autism with Regression (STAR): The target group of study subjects was limited to children aged 3-5 years old, diagnosed as having autism with a historically documented period of regression at onset. Regression was defined as the loss of age appropriate language, communication, cognitive ability, and behavior determined by the referring physician and confirmed by the treating neurologist. Patients with a slowly developing plateau or a very slow regression over a prolonged period of time, as opposed to an abrupt regression, were not included in the STAR group.
Steroid Treatment STAR Patients: Oral prednisolone (Prelone™ or Orapred™) was administered by the parents on a daily basis at 2 mg/kg/day. Dosage was occasionally down-adjusted on the basis of minor complications.
All subjects' electrophysiological data utilized in this study were gathered from 30 scalp channels via gold cup electrodes applied with collodion after careful measurement. A 31st channel carried the FMAER trial marker. A 32nd channel carried eye movement and blink artifact information. Data were digitized at 256 Hz after amplification by a Cardionics™ 32 channel EEG amplifier (Cardionics Inc. 910 Baystar Blvd, Webster, Tex. 77598 USA) set to 1-100 Hz pass band. The 30 EEG scalp channels used included the following: FP1, FP2, F7, F3, FZ, F4, F8, FC5, FC1, FC2, FC6, T7, C3, CZ, C4, T8, CP5, CP1, CP2, CP6, P7, P3, PZ, P4, P8, O1, OZ, O2, TP9, and TP10 [28]. Data for the FMAER were gathered over 5-20 minutes with additional time allowed for rest breaks as indicated. The patient and a parent, when behaviorally indicated, were together within view of the technologist through a one-way mirror window in a sound-shielded room, adjacent to the recording equipment. Off-line, the EEG data and accompanying trial markers were visually evaluated and epochs containing excessive eye-blink, muscle and movement artifact were marked for removal from subsequent analysis. All 30 channel data were visually inspected for EEG abnormalities and for creating the common average reference. For the current study, FMAER analysis was restricted to 14 active scalp electrodes: F7, F8, T7, T8, P7, P8, TP9, TP10, F3, F4, C3, C4, P3, and P4.
Frequency Modulated Auditory Evoked Response (FMAER): Language comprehension requires decoding of rapidly changing speech streams; detection of FM within speech has been hypothesized as essential for accurate phoneme detection and word comprehension. The FMAER was developed as a steady-state EP to assess the brain's response to rapid changes in the frequency modulation (FM) of an applied auditory stimulus in extension of and based upon the pioneering work of Green, Stefanatos and others. […] Midline frontal electrodes (FZ, FC1, FC2) usually manifest bilateral overlapping source dipole projection. […] The FMAER may be normal, or as in pathology, of low amplitude, distorted, or absent. In rare cases of pathology the FMAER source location may be outside the usual STG location and/or the source dipole may point in unexpected directions..
As previously detailed, the FMAER was formed from a carrier sine wave at 1000 Hz frequency modulated by a slower 10 Hz sine wave causing the frequency of the carrier wave to shift (“deviate”) between […] at the 10 Hz rate, producing a warbling tone. The 10 Hz sine wave was then amplitude modulated by a slower 4 Hz sine wave such that the warbling (FM modulation) was sinusoidally turned on and off (AM modulated) at the 4 Hz rate. This process caused the 10 Hz “warbling” of the 1000 Hz sine wave carrier to be sinusoidally turned fully on and off (100% modulation) at 4 Hz. […]

[2] = tested on: children with regressive autism (R-ASD), STAR group; test: DSM-IV criteria for Autistic Disorder, scaled behavioral score
Text: Behavioral Assessment: The DSM-IV criteria for Autistic Disorder (299.0), aside from employment for diagnosis, were scaled in terms of severity for each STAR group child and the sum of the scaled scores was assigned as behavioral score. The direction of scaling was defined such that the higher the score was, the more severe the behavioral manifestations of ASD were. The symptom items and scaling are described in Table 2. […] Summed scaled item scores were assigned in order to quantify behavioral change in analogy to language change. For the current study scores were selected for the office visit nearest to the first and the second EEG/FMAER studies respectively. Scorers had no knowledge of the current study's goals or design, the future group status of subjects, or the subjects' FMAER results. The NSA group subjects lacked the DSM-IV based behavior scores.

[3] = tested on: children with regressive autism (R-ASD), STAR group; test: Clinical Language Status Questionnaire (CLSQ) language assessment
Text: Language Assessment, STAR Group: STAR group subjects were followed by their child neurologists using a clinical language assessment, referred to as the “Clinical Language Status Questionnaire (CLSQ)” which was developed in-house well prior to the current study. It is as yet unpublished. The assessment was designed to assist pediatric neurologists involved in the pharmacological treatment of neurological disorders, in estimating language progress or lack thereof—from a child's parent(s)' report and the clinician's direct assessment at the time of a clinical visit. It involves evaluation of both the child's current best expressive and receptive language performance. In the current study, documentation of lack of response improvement or plateau, along with assessment of medical complication(s), constituted the primary evidence used for treatment discontinuation. […] The term “Appears normal” (Table 1) was defined as the clinician's and family's report of normal, age-appropriate speech. None of the children in this study received this score. “Appears nearly normal” was defined as context and age appropriate speech with evidence of mispronunciations, poor or odd word choice, unusual fluency or unusually sparseness, unusual grammatical errors such as errors in tense, pronoun gender match and/or pluralization, and/or requirement of adult speech simplification in order to assure comprehension relative to age expectancy. The difference between “short meaningful 1-2 word phrases” and “meaningful 3+ word phrases” is self-explanatory. Although many well developed language tests exist, as documented by the American Speech-Language-Hearing Association (www.asha.org/assessments.aspx), most tend to be detailed yet too coarsely grained to capture this population's limited language range. They are also typically too time-consuming for repeated administration by neurologists during recurring, clinical check-in visits. In contrast, the CLSQ may be completed in less than ten minutes. An additional advantage of the CLSQ for the current study was its comprehensiveness in capturing the full—while limited—range of language change observed in this patient population. Parents are shown short phrases (without the numerical scores) and asked to identify their child's current relevant expressive and receptive status. The neurologist stands by to clarify, assist, and help resolve two caregivers' divergent opinions. Neurologists using the CLSQ are sensitive to the language performance definitions in question. The study subjects' CLSQ score assignments occurred without prior knowledge of the current study.

[4] = tested on: children with regressive autism (R-ASD), STAR group; test: Subjective evaluation of EEG abnormality, change from first to second study
Text: Subjective Evaluation of EEG Abnormality: All first and second EEG studies were visually reassessed by a pediatric electroencephalographer blinded to subject history and group identity. All EEGs were reviewed in randomly selected order with respect to group and study order. Each EEG was scored as showing in ascending order of abnormality (if present): paroxysmal sharp theta, sharp waves, and spike or spike wave discharges. After this “blinded” estimation was completed, EEG results were sorted into first and second EEG study order, without group identity; subsequently the electroencephalographer compared each subject's two sequential EEGs and classified their scores as showing “worsening”, “no change”, or “improvement” between the first and second study.

[5] = STAR group n = 20, pre- to post-treatment, CLSQ scale 0-10
[6] = STAR group n = 20, blinded visual EEG rating

C[C@]12C=CC(=O)C=C1CC[C@@H]1[C@@H]2[C@@H](O)C[C@@]2(C)[C@H]1CC[C@]2(O)C(=O)CO [prednisolone]
Electrode measurements of the FMAER 4 Hz response with significant change before vs after steroid therapy ([1]; STAR group, matched-paired t-test, 14 electrodes): nine of 14 and 9 of 14
FMAER response distortion (spectral spread) after steroid treatment ([1]; all STAR subjects, FFT of FMAER): reduction of distortion
Mean Diff. (mean of pre to post difference of 4 Hz FMAER spectral power) ([1]; electrode C3): 24.15 μV^2/Hz
Mean Diff. (mean of pre to post difference of 4 Hz FMAER spectral power) ([1]; electrode C4): 22.66 μV^2/Hz
Mean Diff. (mean of pre to post difference of 4 Hz FMAER spectral power) ([1]; electrode F3, mean 9.125 months): 47.18 μV^2/Hz
Mean Diff. (mean of pre to post difference of 4 Hz FMAER spectral power) ([1]; electrode F4): 64.31 μV^2/Hz
Mean Diff. (mean of pre to post difference of 4 Hz FMAER spectral power) ([1]; electrode F7): 3.38 μV^2/Hz
Mean Diff. (mean of pre to post difference of 4 Hz FMAER spectral power) ([1]; electrode F8): 18.47 μV^2/Hz
Mean Diff. (mean of pre to post difference of 4 Hz FMAER spectral power) ([1]; electrode P3): 10.49 μV^2/Hz
Mean Diff. (mean of pre to post difference of 4 Hz FMAER spectral power) ([1]; electrode P4): 10.52 μV^2/Hz
Mean Diff. (mean of pre to post difference of 4 Hz FMAER spectral power) ([1]; electrode P7): 65.08 μV^2/Hz
Mean Diff. (mean of pre to post difference of 4 Hz FMAER spectral power) ([1]; electrode P8): 77.83 μV^2/Hz
Mean Diff. (mean of pre to post difference of 4 Hz FMAER spectral power) ([1]; electrode T7): 15.49 μV^2/Hz
Mean Diff. (mean of pre to post difference of 4 Hz FMAER spectral power) ([1]; electrode T8): 30.60 μV^2/Hz
Mean Diff. (mean of pre to post difference of 4 Hz FMAER spectral power) ([1]; electrode TP9): 56.91 μV^2/Hz
Mean Diff. (mean of pre to post difference of 4 Hz FMAER spectral power) ([1]; electrode TP10): 83.49 μV^2/Hz
Average DSM-IV Score (mean of 14 scored items, 0-3 each) ([2]; After treatment): 0.9857
Average DSM-IV Score (mean of 14 scored items, 0-3 each) ([2]; Before treatment (baseline)): 2.0677
Scaled DSM-IV symptom summary scores after steroid treatment ([2]; p≦0.00001): highly significant improvement
Expressive Language change Time 1 to Time 2: number of subjects Better ([3]; STAR group n = 20): 17
Expressive Language change Time 1 to Time 2: number of subjects NoDiff ([3]; STAR group n = 20): 2
Expressive Language change Time 1 to Time 2: number of subjects Worse ([3]; STAR group n = 20): 1
Receptive Language change Time 1 to Time 2: number of subjects Better ([3]; STAR group n = 20): 17
Receptive Language change Time 1 to Time 2: number of subjects NoDiff ([3]; STAR group n = 20): 3
Receptive Language change Time 1 to Time 2: number of subjects Worse ([3]; STAR group n = 20): 0
Mean Diff. of CLSQ score, Time 1 to Time 2, Expressive language [3, 5]: 4.10
Mean Diff. of CLSQ score, Time 1 to Time 2, Receptive language [3, 5]: 4.80
STAR group subjects showing improvement in language ratings ([3]; receptive and expressive, study 1 to study 2): 17/20
EEG change Time 1 to Time 2: number of subjects Improved [4, 6]: 3
EEG change Time 1 to Time 2: number of subjects No Change [4, 6]: 10
EEG change Time 1 to Time 2: number of subjects Worse [4, 6]: 7
Steroid effect on EEG abnormalities by visual inspection ([4]; STAR vs NSA, Fisher's exact test n.s.): little evidence for a physiologically meaningful steroid effect on EEG

— patent US20170105647A1, “SYSTEMS AND METHODS FOR IDENTIFYING NEUROBIOLOGICAL BIOMARKERS USING EEG” (Children's Medical Center Corporation, priority 2014, published 2017)
